US7541477B2, “Antagonists to melanin-concentrating hormone receptor comprising benzimidazole derivative as active ingredient” (Banyu Pharmaceutical Co., Ltd., priority 2002, dated 2009)
Where a name gives a salt, the structure may show the parent alone.

Molecular target: T1, human MCH-1R (Homo sapiens, UniProt Q99705)
T1 construct: expressed in transfected cells; host or cells: CHO-K1 (American Type Culture Collection), membrane preparation
Experiment: MCH binding inhibition assay ([125I]MCH, membranes of CHO-K1 cells expressing MCH-1R)
Conditions: 50 pM [125I]MCH, 25° C., 1 hour; read-out: 50% Inhibitory Concentration against MCH-Binding, IC50
Procedure: cDNA sequence encoding human MCH-1R [FEBS Letters, 398:253(1996), Biochimica et Biophisica Acta, 1401: 216(1998)] was cloned into plasmid vector pEF/mic/cyto (Invitrogen). The expression vector so obtained was transfected into host cells CHO-K1 (American Type Culture Collection) by using Lipofectamine Plus Reagent (Life Technologies) to give MCH-1R expressing cells.
Membrane preparation generated from the cells expressing MCH-1R was incubated together with a test compound and 50 pM [^125I]MCH (NEN) in assay buffer (50 mM Tris buffer, pH7.4, containing 10 mM magnesium chloride, 2 mM ethylenediaminetetraacetic acid, 0.01% Bacitracin and 0.2% bovine serum albumin) at 25° C. for 1 hour, then filtered through a glass filter GF/C (Whatman). After washing the glass filter with 50 mM Tris buffer, pH7.4, containing 10 mM magnesium chloride, 2 mM ethylenediaminetetraacetic acid and 0.04% Tween-20, radioactivity on the glass filter was measured. Nonspecific binding was measured in the presence of 1 μM human MCH and a 50% inhibitory concentration (IC50) of the test compound against specific [^125I]MCH-binding was determined.

T1 sequence (Q99705 whole entry): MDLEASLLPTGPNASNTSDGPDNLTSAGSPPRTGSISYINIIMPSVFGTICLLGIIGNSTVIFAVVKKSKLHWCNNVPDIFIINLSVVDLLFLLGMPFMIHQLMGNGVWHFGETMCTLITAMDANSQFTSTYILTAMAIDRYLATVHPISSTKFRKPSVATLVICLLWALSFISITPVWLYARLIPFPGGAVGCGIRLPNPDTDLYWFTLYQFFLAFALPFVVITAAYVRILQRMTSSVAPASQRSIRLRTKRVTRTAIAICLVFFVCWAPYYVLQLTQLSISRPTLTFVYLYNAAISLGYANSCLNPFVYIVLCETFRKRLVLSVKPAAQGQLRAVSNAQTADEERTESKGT

Which IC50 does the source give for `CC(C)N(C)c1nc2ccc(NC(=O)CCc3ccc(C(F)(F)F)cc3)cc2[nH]1` [Example 1, N-{2-[isopropyl(methyl)amino]-1H-benzimidazol-6-yl}-3-[4-(trifluoromethyl)phenyl]propanamide] here?
The IC50 was 5.8 nM.

How did the IC50 turn out when `COc1ccc(-c2ccc(C(=O)Nc3ccc4nc(N(C)C(C)C)[nH]c4c3)cc2)cn1` [Example 17, N-{2-[isopropyl(methyl)amino]-1H-benzimidazol-6-yl}-4-(6-methoxy-3-pyridinyl)benzamide] was run?
Its IC50 is 6.2 nM.

For `CC(C)N(C)c1nc2ccc(NC(=O)c3cnc(-c4ccc(F)cc4)cn3)cc2[nH]1` [Example 24, 5-(4-Fluorophenyl)-N-{2-[isopropyl(methyl)amino]-1H-benzimidazol-6-yl}-2-pyrazinecarboxamide hydrochloride], which IC50 is on record?
Its IC50 is 3.3 nM.
